Source: patent US20220228192A1, “Method To Evaluate Metabolic Activity Of Liver Enzymes” (Owlstone Medical Limited, priority 2018, published 2022)

Tests used:
[1] = Breath Biopsy: VOCs in exhaled breath after ingestion of a peppermint capsule; assay type: in vivo; conditions: for relative abundance among peppermint-related compounds in breath / VOC level in breath compared to baseline pre-ingestion controls: single individual; for VOC level in breath compared to baseline pre-ingestion controls: breath captured 30 minutes after consumption of the peppermint capsule, FIG. 1
Description: For comparison, two breath collections were made from the same individual prior to ingestion to provide a baseline concentration for the VOCs of interest. Breath samples were analysed in the Breath Biopsy® Clinical Lab by FAIMS and TD-GC-TOF mass spectrometry.

CYP3A4 = CYP3A4 (Homo sapiens, UniProt P08684); conditions: cited from earlier work
Sequence of CYP3A4 (P08684 whole entry): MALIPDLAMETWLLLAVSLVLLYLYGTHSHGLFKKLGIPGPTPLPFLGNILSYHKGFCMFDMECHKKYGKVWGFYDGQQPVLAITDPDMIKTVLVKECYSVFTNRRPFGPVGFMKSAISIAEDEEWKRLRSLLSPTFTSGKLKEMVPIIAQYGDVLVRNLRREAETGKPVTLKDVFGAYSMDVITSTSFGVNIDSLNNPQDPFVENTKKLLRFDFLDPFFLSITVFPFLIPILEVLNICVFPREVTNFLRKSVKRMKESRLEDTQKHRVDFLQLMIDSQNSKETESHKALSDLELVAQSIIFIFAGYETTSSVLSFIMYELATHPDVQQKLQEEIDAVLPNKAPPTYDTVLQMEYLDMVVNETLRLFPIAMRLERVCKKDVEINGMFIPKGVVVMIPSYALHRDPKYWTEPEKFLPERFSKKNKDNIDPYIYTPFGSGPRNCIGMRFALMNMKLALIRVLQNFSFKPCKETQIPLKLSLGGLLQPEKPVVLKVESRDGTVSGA

[2] = test system: CYP2C19 and CYP2C9 enzymes; assay: Clinical study: limonene in exhaled breath, patients treated with an atherothrombotic drug versus untreated controls; assay type: in vivo; conditions: drug metabolised by CYP2C19 and CYP2C9 competes with limonene metabolism; FIG. 5
Description: FIG. 5. Limonene concentration in the exhaled breath of patients prescribed with an atherothrombotic drug that is metabolised by CYP2C19 and CYP2C9 enzymes.
The drug is metabolised by CYP2C19 and CYP2C9 enzymes. […] As less limonene is metabolised compare dot eh control group.

[3] = after consumption of the peppermint capsule

VOC level in breath compared to baseline pre-ingestion controls [1]	Structure (SMILES)	relative abundance among peppermint-related compounds in breath [1, 3]	metabolising enzyme (CYP3A4)	concentration in breath [1, 3]	limonene in exhaled breath, drug-treated patients versus untreated control group [2]
large increase	C=C1CCC2CC1C2(C)C (stereo not drawn) [β-pinene]	most abundant			
large increase	CC12CCC(CC1)C(C)(C)O2 [eucalyptol]		specifically metabolised by CYP3A4		
large increase	CC1=CCC2CC1C2(C)C (stereo not drawn) [α-pinene]				
large increase	CC1CCC(C(C)C)C(O)C1 (racemic) [(±)-menthol]				

Structure (SMILES)	VOC level in breath compared to baseline pre-ingestion controls [1]	relative abundance among peppermint-related compounds in breath [1, 3]	metabolising enzyme (CYP3A4)	concentration in breath [1, 3]	limonene in exhaled breath, drug-treated patients versus untreated control group [2]
C=C(C)[C@H]1CC=C(C)CC1 [limonene]	large increase	most abundant		part-per-trillion (ppt) concentrations	higher secretion of limonene into breath
